Experimental data reported in patent US10745401B2, “Condensed lactam derivative” (Sumitomo Dainippon Pharma Co., Ltd., priority 2018, dated 2020).

Legend:
[1] = target: T1, human 5-HT1A receptor (Homo sapiens (Human), UniProt P08908); experiment: Test 2: agonist activity for human 5-HT1A receptor ([35S]GTPγS binding); assay type: biochemical; settings: for EC50: [35S]GTPγS binding, concentration at which half the activity of Emax was obtained; for Emax at 10 µM: agonist activity in the presence of 10 μM of compound, relative to 100 μmol/L 5-HT
T1 sequence (P08908 whole entry): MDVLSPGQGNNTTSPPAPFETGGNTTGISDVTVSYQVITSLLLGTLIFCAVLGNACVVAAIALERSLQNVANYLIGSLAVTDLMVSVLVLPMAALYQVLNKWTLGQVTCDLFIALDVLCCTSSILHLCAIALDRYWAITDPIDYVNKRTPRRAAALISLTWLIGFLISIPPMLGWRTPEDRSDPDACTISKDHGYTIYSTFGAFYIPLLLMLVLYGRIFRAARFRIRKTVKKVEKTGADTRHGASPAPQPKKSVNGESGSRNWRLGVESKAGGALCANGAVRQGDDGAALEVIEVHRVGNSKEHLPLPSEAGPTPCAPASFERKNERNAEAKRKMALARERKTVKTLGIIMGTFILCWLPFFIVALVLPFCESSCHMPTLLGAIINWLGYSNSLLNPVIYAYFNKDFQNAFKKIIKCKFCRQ
Procedure: Test 2: Evaluation of Agonist Activity for Human 5-HT1A Receptor
CHO cell membrane fraction in which human 5-HT1A receptor was expressed as used in Test 1 was purchased. To a buffer containing guanosine diphosphate were added a test compound dissolved in DMSO, each receptor membrane sample diluted with buffer, and [^35S] Guanosine 5′-O-[gamma-thio]triphosphate (GTPγS). The mixture was incubated at room temperature for 60 minutes. Then, the mixture was added quickly on a glassfiber filter plate (Multiscreen FB, Millipore, Inc.), and vacuum-filtered. Radioactivity remaining on the […] was measured with a liquid scintillation counter. Agonist activity was calculated from the following formula.

[2] = Test 4: metabolic stability test in human hepatic microsome; assay type: in vitro ADME; settings: 0.1 mg/mL microsome, 0.1 μmol/L compound, 37° C., 30 minutes
Procedure: Test 4: Metabolic Stability Test in Human Hepatic Microsome
The stability of the present compound in human hepatic microsome metabolism was evaluated as mentioned below. Human hepatic microsome was obtained from Xenontech. Human hepatic microsome, NADPH, and each test compound were mixed in 25 mmol/L phosphate buffer solution (pH 7.4) to reach the following concentrations as shown below, and the mixture was incubated at 37° C. for 30 minutes. • Human hepatic microsome: 0.1 mg/mL • NAPDH: 3.2 mmol/L • Test compound: 0.1 μmol/L
The residual ratio of the test compound in each sample after 30 minutes was measured by LC-MS, and the metabolic stability in human hepatic microsome was calculated from the following formula. Metabolic stability in human hepatic microsome (mL/min/mg protein)=−LN (residual ratio)/30/0.1

[3] = target: T1, human 5-HT1A receptor; experiment: Test 1: binding activity for human 5-HT1A receptor ([3H]8-OH-DPAT, CHO cell membrane fraction)
Procedure: (§1) Test 1: Evaluation of Binding Activity for Human 5-HT1A Receptor, Human 5-HT2A Receptor, and Human D2 Receptor
(§2) Binding affinity of the present compound for human 5-HT1A receptor, human 5-HT2A receptor, and human D2 receptor was measured by the following procedures.
(§3) Each mixture was incubated at room temperature for 60 minutes. Then, the mixture was added quickly on a glassfiber filter plate (Multiscreen FB, Millipore, Inc.) coated with 0.3% aqueous polyethylenimine, and vacuum-filtered. Radioactivity remaining on the filter was measured with a liquid scintillation counter (PerkinElmer, Inc.). Binding inhibition rate was calculated from the following formula.
(§4) IC50 value was calculated by Hill analysis (Physiology, 1910, 40, 190-200). Ki of each compound was calculated from the following formula. Binding inhibition constant (Ki)=IC50/(1+S/Kd) wherein S is concentration of ligand; Kd is a binding dissociation constant of ligand to membrane, which is calculated from a saturated binding experiment conducted with the same cell membrane. A small Ki value means strong binding ability to a receptor.

[4] = target: hERG channel (Homo sapiens (Human), UniProt Q12809); experiment: Test 6-1: inhibitory activity for hERG channel (auto patch clamp, Qpatch); assay type: cell-based; settings: whole cell auto patch clamp, hERG-CHO cells; read-out: hERG inhibition IC50
Chain of hERG channel (Q12809 whole entry): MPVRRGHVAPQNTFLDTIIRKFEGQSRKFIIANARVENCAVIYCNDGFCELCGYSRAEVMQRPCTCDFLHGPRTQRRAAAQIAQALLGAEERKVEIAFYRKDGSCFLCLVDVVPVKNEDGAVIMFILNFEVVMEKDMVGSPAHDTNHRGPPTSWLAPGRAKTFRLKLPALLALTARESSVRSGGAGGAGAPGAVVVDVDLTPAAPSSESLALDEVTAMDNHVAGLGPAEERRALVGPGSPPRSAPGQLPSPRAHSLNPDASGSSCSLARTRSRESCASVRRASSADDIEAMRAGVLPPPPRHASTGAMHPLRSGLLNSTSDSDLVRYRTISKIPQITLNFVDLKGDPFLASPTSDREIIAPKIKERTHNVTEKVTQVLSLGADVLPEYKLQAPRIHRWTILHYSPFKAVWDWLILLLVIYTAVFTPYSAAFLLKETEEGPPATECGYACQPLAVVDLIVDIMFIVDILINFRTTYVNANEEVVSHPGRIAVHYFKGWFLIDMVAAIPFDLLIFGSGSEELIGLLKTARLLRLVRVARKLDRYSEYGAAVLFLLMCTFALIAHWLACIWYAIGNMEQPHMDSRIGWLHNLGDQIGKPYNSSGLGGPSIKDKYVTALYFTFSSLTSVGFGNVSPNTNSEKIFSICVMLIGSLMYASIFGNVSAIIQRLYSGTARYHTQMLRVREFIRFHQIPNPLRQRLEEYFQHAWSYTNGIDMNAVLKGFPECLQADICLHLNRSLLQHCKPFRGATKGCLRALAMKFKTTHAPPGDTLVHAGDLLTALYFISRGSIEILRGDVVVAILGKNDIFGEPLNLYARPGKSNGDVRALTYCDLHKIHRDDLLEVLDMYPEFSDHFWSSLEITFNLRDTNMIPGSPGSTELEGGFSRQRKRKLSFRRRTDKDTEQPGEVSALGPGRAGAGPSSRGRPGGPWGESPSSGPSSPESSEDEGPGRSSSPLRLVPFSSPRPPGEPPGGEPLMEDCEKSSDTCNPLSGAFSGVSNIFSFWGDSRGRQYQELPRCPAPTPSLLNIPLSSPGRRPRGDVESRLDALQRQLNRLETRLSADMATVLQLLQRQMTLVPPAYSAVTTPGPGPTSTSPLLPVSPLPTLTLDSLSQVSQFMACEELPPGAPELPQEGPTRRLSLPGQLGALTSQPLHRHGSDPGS
Procedure: Test 6-1: Evaluation of Inhibitory Activity for hERG Channel
Inhibitory activity of the present compound for hERG channel was measured by whole cell patch clamp method with an auto patch clamp system using CHO cells in which hERG channel involved in human rapidly activating delayed rectifier potassium current (IKr) was forcibly expressed.
hERG-CHO cells purchased from ChanTest Cop. were cultured in a CO2 incubator at 37° C., and dissociated from a flask with trypsin shortly before the measurement of hERG current, to prepare a cell suspension.
Extracellular fluid: 2 mmol/L CaCl2, 1 mmol/L MgCl2, 10 mmol/L HEPES, 4 mmol/L KCl, 145 mmol/L NaCl, 10 mmol/L Glucose
Intracellular fluid: 5.4 mmol/L CaCl2, 1.8 mmol/L MgCl2, 10 mmol/L HEPES, 31 mmol/L KOH, 10 mmol/L EGTA, 120 mmol/L KCl, 4 mmol/L Na2-ATP
Test compound solution: Test compound was dissolved in DMSO to reach the concentration of 2 mmol/L or 20 mmol/L, in order to prepare a test compound solution. […] (Measurement of Current Value and Data Analysis)
The cell suspension, the extracellular fluid, the intracellular fluid, and the measurement plate were set in the auto patch clamp system, and hERG current was measured by whole cell patch clamp method. […] Each pulse interval was 15 seconds. The data analysis was carried out with Qpatch Assay Software (Biolin Scientific). The test was carried out by applying incrementally 4 concentrations of each test compound, and the average of the maximum peak tail currents which were obtained from the last 3 stimulations in each concentration was determined as the evaluated data. Based on the current inhibition rate for a pre-applied current at each concentration of each test compound, IC50 value was calculated by Hill equation with the software.

[5] = target: human D2 receptor (Homo sapiens (Human), UniProt P14416); experiment: Test 1: binding activity for human D2 receptor ([3H]Spiperone, CHO cell membrane fraction); settings: human D2 receptor, [3H]Spiperone
Chain of human D2 receptor (P14416 whole entry): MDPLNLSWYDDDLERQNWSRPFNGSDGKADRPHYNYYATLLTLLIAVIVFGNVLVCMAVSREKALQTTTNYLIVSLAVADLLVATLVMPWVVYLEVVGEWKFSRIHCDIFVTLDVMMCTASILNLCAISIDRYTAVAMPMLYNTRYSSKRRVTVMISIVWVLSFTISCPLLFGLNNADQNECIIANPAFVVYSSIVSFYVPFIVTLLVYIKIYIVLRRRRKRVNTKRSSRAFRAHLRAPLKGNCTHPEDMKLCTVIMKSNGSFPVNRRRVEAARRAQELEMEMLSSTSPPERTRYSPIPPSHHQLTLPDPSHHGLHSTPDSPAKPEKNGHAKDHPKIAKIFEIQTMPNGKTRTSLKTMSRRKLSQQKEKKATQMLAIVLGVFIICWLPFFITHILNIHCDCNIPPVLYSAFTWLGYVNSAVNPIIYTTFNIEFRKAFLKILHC
Procedure: as §1, §2, §3
as §4, with “Ki” for “IC50 value was calculated by Hill analysis (Physiology, 1910, 40, 190-200). Ki”

Compound | EC50 [1] [nM] | Emax at 10 µM [1] [%] | Metabolic stability in human hepatic microsome [2] [mL/min/mg protein] | Ki [3] [nM] | IC50 [4] [nM] | Ki [5] [nM]
Cc1nc(C)c2c(n1)CCN(CCN1CCC(c3noc4ccccc34)CC1)C2=O [Example 139] | 72.7 | 48 | <0.05 | 20.3 | 3800 | 635
Cn1cnc2c1CCN(CCN1CCC(c3noc4ccccc34)CC1)C2=O [Example 16] | 300 | 40 | <0.01 | 18.6 | > 10000 | 34000
COc1ncc2c(n1)CCN(CCN1CCC(c3noc4ccccc34)CC1)C2=O [Example 176] | 30.6 | 40 | <0.05 | 5.1 | 1000 | 248
CCn1cc2c(n1)CCN(CCN1CCN(c3nsc4ccccc34)CC1)C2=O [Example 163] | 11 | 67 | 0.118 | 2.4 | 1400 | 766
Cc1ncc2c(n1)CCC(CCN1CCC(c3noc4ccccc34)CC1)C2=O (centres unmarked) [Example 150] | 36.9 | 54 | <0.05 | 5.36 | 1200 | 188
O=C1c2nc[nH]c2CCN1CCN1CCC(c2noc3ccccc23)CC1 [Example 191, 5-{2-[4-(1,2-Benzoisoxazol-3-yl)piperidin-1-yl]ethyl}-6,7-dihydro[1,3]imidazolo[4,5-c]pyridin-4(5H)-one] | 4260 | 14 | <0.05 | 817 | 2600 | 286
Cn1ccc2c1CCN(CCN1CCN(c3noc4ccccc34)CC1)C2=O [Example 170] | 823 | 42 | <0.05 | 35.2 | 7400 | 1680
Cn1cnc2c1C(=O)N(CCN1CCC(c3noc4ccccc34)CC1)CC2 [Example 133] | 290 | 26 | <0.05 | 327 | 4700 | 914
O=C1c2oc(C3CC3)nc2CCN1CCN1CCN(c2nsc3ccccc23)CC1 [Example 67] | 3.19 | 65 | 0.269 | 1.17 | 1600 | 
O=c1c2cnccc2ccn1CCN1CCN(c2nsc3ccccc23)CC1 [Example 11] |  |  | 0.245 | 2.95 | 2600 | 316
O=C1c2cn[nH]c2CCN1CCN1CCC(c2noc3ccccc23)CC1 [Example 189, 5-{2-[4-(1,2-Benzoisoxazol-3-yl)piperidin-1-yl]ethyl}-1,5,6,7-tetrahydro-4H-pyrazolo[4,3-c]pyridin-4-one] | 690 | 49 | <0.05 | 98.4 | 1800 | 
O=C1c2cnn(C3CC3)c2CCN1CCN1CCN(c2nsc3ccccc23)CC1 [Example 160] | 844 | 43 | 0.13 | 20.2 |  | 170
CC(C)c1ncc2c(=O)n(CCN3CCN(c4nsc5ccccc45)CC3)ccc2n1 [Example 181] | 79 | 53 | 0.791 | 48.6 |  | 3690
CC(C)c1nc2c(o1)C(=O)N(CCN1CCC(c3noc4ccccc34)CC1)CC2 [Example 164] | 69.5 | 48 | 0.097 | 11.7 | 1000 | 
